Melting point data for five compounds are collected here from patent US20040077664A1, “Pharmaceutical formulation comprising pyrazolo[4,3-d]pyrimidine and nitrates or thienopyrimidines and nitrates” (priority 2001, published 2004).

Counter-ions that a name gives are not always drawn.

For orientation: melting point means the temperature of the solid-liquid transition. Regarding `CCCc1nn(C)c2c(NCc3ccc(OC)c(Cl)c3)nc(CCC(=O)O)nc12` [Example 2 (formula I), 3-[7-(3-chloro-4-methoxybenzylamino)-1-methyl-3-propyl-1H-pyrazolo-[4,3-d]pyrimidin-5-yl]propionic acid], the melting point is 178 °C.

`COc1ccc(CNc2nc(CCC(=O)O)nc3sc4c(c23)CCCC4)cc1Cl` [Example 2 (formula I-I), 3-[4-(3-chloro-4-methoxybenzylamino)-5,6,7,8-tetrahydro-[1]-benzothieno[2,3-d]pyrimidin-2-yl]propionic acid] displayed a melting point of 229 °C.

As for `COc1ccc(CNc2nc(CCC(=O)O)nc3sc4c(c23)CCCC4)cc1Cl` (as salt: salt) [Example 2 (formula I-I), 3-[4-(3-chloro-4-methoxybenzylamino)-5,6,7,8-tetrahydro-[1]-benzothieno[2,3-d]pyrimidin-2-yl]propionic acid], the melting point came to 135 °C.

`COc1ccc(CNc2nc(CCC(=O)O)nc3sc4ccccc4c23)cc1Cl` [Example 2 (formula I-II), 3-[4-(3-chloro-4-methoxybenzylamino)benzothieno[2,3-d]pyrimidin-2-yl]propionic acid] gave a melting point of 218 °C.

Consider `COC(=O)c1ccc(-c2nc(NCc3ccc(OC)c(Cl)c3)c3c(n2)sc2ccccc23)cc1` [Example 3 (formula I-II), methyl 4-[4-(3-chloro-4-methoxybenzylamino)-[1]-benzothieno[2,3-d]pyrimidin-2-yl]benzoate], for which the melting point was 203 to 204 °C.
